Reference: article PMC3968014, “Design and Synthesis of a Library of Lead-Like 2,4-Bisheterocyclic Substituted Thiophenes as Selective Dyrk/Clk Inhibitors” (PLoS ONE, 2014)
Several values for one entry are separate records, joined by “and”; a condition that tells them apart may be missing. Equal values may be shown once.

Key:
Dyrk1A = target: T1, Dyrk1A (Homo sapiens, UniProt Q13627); assay: Dyrk1A kinase assay (32P-ATP, Woodtide); assay type: biochemical; settings: for IC50: 100 µM ATP; for inhibition at 5 µM: read-out: percentage of inhibition Dyrk1A; for inhibition at 5 µM / percentage of inhibition Dyrk1A: at 5 µM
T1 construct: encoding the catalytic domain of human Dyrk1A; thrombin cleavage site (N); made in house; host or cells: Escherichia coli BL21(DE3) with pRARE

CK2α = target: T2, CK2α (Homo sapiens, UniProt P68400); assay: CK2α kinase assay (counter screen); assay type: biochemical; settings: read-out: percentage of inhibition CK2α
T2 construct: purchased Life Technologies (Invitrogen SelectScreen); Dyrk1A, Dyrk2 and CK2α in-house or gifts
Procedure: Dyrk1A, Dyrk1B, Dyrk2, CK2α and Clk1 kinase reactions were performed in a reaction buffer containing 50 mM Tris/HCl, pH 7.4, 0.1 mM EGTA, 0.5 mM DTT, 10 mM MgCl2, 100 µM ATP and 0.33 µM [γ-^32ATP] as well as the appropriate substrate peptides, which were 100 µM Woodtide for the Dyrk isoforms ([…]-NH2), 60 µM CK2 substrate peptide ([…]-NH2, from Millipore) for CK2α or RS repeat peptide ([…]) for Clk1. The CK2α protein was a kind gift of M. Montenarh (Homburg). The kinase reactions were performed at 30°C for 15 min and terminated by spotting 5 µL of the reaction mixture onto a P81 phosphocellulose membrane (Whatman). The membrane was washed four times with 0.3% phosphoric acid and one time with acetone and dried. The dry membrane was exposed in a cassette to a Phosphor Screen Imaging Plate (FujiFilm) and the signals detected by scanning of the imaging plate in a Fuji FLA-3000 PhosphoImager. The spots were quantified using AIDA software (Raytest, Version 3.52) to determine the activities of the kinases in the assay reactions. […] IC50 values were calculated by fitting the data with Origin Pro 8.6 (OriginLabs). The calculated IC50 values are representative of at least two independent determinations.

Dyrk1B = target: T3, Dyrk1B (Homo sapiens, UniProt Q9Y463); assay: Dyrk1B kinase assay (32P-ATP, Woodtide); assay type: biochemical; settings: for IC50: 100 µM ATP; for inhibition at 5 µM / inhibition at 1 µM: read-out: percentage of inhibition Dyrk1B; for inhibition at 5 µM / percentage of inhibition Dyrk1B: at 5 µM
T3 construct: purchased Life Technologies PV4649 (LOT # 877059G)

Dyrk2 = target: T4, Dyrk2 (Homo sapiens, UniProt Q92630); assay: Dyrk2 kinase assay (32P-ATP, Woodtide); assay type: biochemical; settings: for IC50: 100 µM ATP, read-out: IC50 Dyrk2; for inhibition at 5 µM / inhibition at 1 µM: read-out: percentage of inhibition Dyrk2
T4 construct: made in house; host or cells: Escherichia coli BL21(DE3) with pRARE; plasmid pGEX-2TK-Dyrk2 (gift from W. Becker, Aachen)
T4 sequence (Q92630 1-601): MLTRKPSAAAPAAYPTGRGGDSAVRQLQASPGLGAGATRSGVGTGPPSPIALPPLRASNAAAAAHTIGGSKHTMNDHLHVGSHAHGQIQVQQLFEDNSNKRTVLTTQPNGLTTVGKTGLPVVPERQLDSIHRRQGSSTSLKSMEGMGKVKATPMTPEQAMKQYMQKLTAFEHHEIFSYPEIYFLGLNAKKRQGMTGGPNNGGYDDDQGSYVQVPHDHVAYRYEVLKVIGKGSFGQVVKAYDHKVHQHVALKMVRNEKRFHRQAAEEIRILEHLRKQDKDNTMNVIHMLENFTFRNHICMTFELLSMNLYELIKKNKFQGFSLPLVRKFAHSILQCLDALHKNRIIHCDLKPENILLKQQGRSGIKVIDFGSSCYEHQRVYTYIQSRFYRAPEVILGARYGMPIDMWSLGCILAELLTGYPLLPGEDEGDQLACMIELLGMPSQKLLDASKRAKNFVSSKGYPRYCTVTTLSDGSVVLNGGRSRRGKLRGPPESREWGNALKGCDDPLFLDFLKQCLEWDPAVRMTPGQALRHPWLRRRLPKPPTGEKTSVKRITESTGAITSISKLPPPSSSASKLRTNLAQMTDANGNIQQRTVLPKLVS

T3 sequence (Q9Y463 whole entry): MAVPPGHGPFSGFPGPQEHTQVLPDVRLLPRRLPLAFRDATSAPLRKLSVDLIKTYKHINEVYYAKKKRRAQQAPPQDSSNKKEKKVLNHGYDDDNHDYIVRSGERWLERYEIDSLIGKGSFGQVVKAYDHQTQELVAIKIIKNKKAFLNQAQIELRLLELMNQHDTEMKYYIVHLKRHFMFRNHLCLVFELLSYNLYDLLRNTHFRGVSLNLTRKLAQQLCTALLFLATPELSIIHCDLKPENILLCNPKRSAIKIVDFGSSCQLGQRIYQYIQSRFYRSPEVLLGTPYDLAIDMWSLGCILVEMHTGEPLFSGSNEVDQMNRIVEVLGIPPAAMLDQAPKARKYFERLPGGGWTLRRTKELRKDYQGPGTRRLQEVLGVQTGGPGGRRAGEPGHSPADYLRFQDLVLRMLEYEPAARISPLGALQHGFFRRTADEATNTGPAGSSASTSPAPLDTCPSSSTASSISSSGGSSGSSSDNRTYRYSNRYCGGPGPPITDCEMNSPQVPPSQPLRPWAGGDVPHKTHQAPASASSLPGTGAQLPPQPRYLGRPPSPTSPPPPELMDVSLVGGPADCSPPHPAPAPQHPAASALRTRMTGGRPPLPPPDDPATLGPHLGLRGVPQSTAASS
T2 sequence (P68400 whole entry): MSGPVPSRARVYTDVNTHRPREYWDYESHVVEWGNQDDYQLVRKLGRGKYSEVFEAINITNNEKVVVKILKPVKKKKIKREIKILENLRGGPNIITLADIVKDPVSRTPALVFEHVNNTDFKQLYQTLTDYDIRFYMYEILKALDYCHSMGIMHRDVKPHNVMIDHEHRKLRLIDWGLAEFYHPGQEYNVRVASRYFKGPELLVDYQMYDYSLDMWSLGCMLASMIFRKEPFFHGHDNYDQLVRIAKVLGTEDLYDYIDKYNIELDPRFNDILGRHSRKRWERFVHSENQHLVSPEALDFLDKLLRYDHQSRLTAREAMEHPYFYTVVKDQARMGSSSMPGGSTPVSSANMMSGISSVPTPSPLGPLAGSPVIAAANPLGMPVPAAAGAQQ

IC50 (Dyrk1A) [µM] | inhibition at 5 µM (CK2α) [%] | IC50 (Dyrk1B) [µM] | IC50 (Dyrk2) | inhibition at 5 µM (Dyrk1A) [%] | inhibition at 5 µM (Dyrk2; at 5 µM) [%] | SMILES | other results
5 | -15 | 2.2 | 3.8 µM | – | – | Cc1cncc(-c2csc(-c3cncnc3)c2)c1 [Compound 43] | –
– | – | 8.07 | – | 20 | 19 | c1ccc2c(-c3csc(-c4cnco4)c3)cncc2c1 [Compound 39] | –
4.7 | 0 | 3.4 | 1.6 µM | – | – | Cc1ccc(-c2csc(-c3cccnc3)c2)cn1 [Compound 7] | –
1.1 | 27 | 0.9 | 1.8 µM | – | – | c1cncc(-c2cc(-c3cnc4ccccc4c3)cs2)c1 [Compound 20] | –
2.2 | 0 | 0.6 | 0.4 µM | – | – | c1cncc(-c2cc(-c3cnc4ccccn34)cs2)c1 [Compound 32] | –
– | – | – | – | 18 | 30 | c1cc2cc(-c3csc(-c4cnco4)c3)ccc2[nH]1 [Compound 40] | inhibition at 5 µM (Dyrk1B): 9%
2 | 15 | – | – | – | – | Cc1cc(-c2csc(-c3cccc(O)c3)c2)ccc1O [Compound 1] | –
– | – | – | – | 10 | – | Cc1cc(O)cc(-c2csc(-c3cccc(O)c3)c2)c1 [Compound 2] | –
– | – | – | – | 8 | -24 | CSc1ncc(-c2csc(-c3cncnc3)c2)cn1 [Compound 45] | inhibition at 5 µM (Dyrk1B): 20%
– | – | – | – | 1 | 0 | Clc1cncc(-c2csc(-c3cncnc3)c2)c1 [Compound 42] | inhibition at 5 µM (Dyrk1B): 5%
1.5 | -20 | 2.2 | 1.5 µM | – | – | c1ncc(-c2cc(-c3cn[nH]c3)cs2)o1 [Compound 38] | –
– | – | – | – | 25 | 16 | c1ncc(-c2csc(-c3cnco3)c2)cn1 [Compound 36] | inhibition at 5 µM (Dyrk1B): 40%
1.8 | 0 | 3.5 | 1.8 µM | – | – | c1cncc(-c2cc(-c3cncnc3)cs2)c1 [Compound 22] | –
– | – | 9.1 | 5.1 µM | 44 | – | Cn1cncc1-c1csc(-c2cccnc2)c1 [Compound 31] | –
– | – | – | – | 4 | – | [O-][n+]1cccc(-c2csc(-c3cccnc3)c2)c1 [Compound 25] | –
– | 7 | – | 0.63 µM and 0.6 µM | 37 | – | Cn1cnc2cc(-c3csc(-c4cccnc4)c3)cnc21 [Compound 24] | inhibition at 1 µM (Dyrk1B): 13%
– | – | – | – | – | 31 | c1cncc(-c2cc(-c3ccc4c(c3)CCO4)cs2)c1 [Compound 27] | percentage of inhibition Dyrk1A (Dyrk1A): No inhibition; percentage of inhibition Dyrk1B (Dyrk1B): No inhibition
– | 0 | – | – | 45 | – | CCOc1cncc(-c2csc(-c3cccnc3)c2)c1 [Compound 10] | inhibition at 1 µM (Dyrk1B): 6%; inhibition at 1 µM (Dyrk2): 22%
0.9 | 5 | 1.2 | 0.6 µM | – | – | Cc1cncc(-c2csc(-c3cccnc3)c2)c1 [Compound 5, 3-methyl-5-[5-(pyridin-3-yl)thiophen-3-yl]pyridine] | melting point: 106 to 107 °C
– | – | – | – | 9 | 15 | c1ccc2c(-c3csc(-c4cncnc4)c3)cncc2c1 [Compound 46] | inhibition at 5 µM (Dyrk1B): 33%

IC50 (Dyrk1A) [µM] | inhibition at 5 µM (CK2α) [%] | IC50 (Dyrk1B) [µM] | IC50 (Dyrk2) | inhibition at 5 µM (Dyrk1A) [%] | inhibition at 5 µM (Dyrk2; at 5 µM) [%] | SMILES | other results
1.5 | 3 | 2.4 | 1.2 µM | – | – | c1cncc(-c2csc(-c3cncc4ccccc34)c2)c1 [Compound 47] | –
0.9 | 0 | 1.1 | 0.9 µM | – | – | CC(=O)c1cncc(-c2csc(-c3cccnc3)c2)c1 [Compound 17, 1-{5-[5-(pyridin-3-yl)thiophen-3-yl]pyridin-3-yl}ethan-1-one] | melting point: 166 to 167 °C
1.2 | -15 | 1.1 | 1.5 µM | – | – | Cc1cncc(-c2csc(-c3cnco3)c2)c1 [Compound 35] | –
0.9 | 0 | 1.4 | 0.4 µM | – | – | Fc1cncc(-c2csc(-c3cccnc3)c2)c1 [Compound 15, 3-fluoro-5-[5-(pyridin-3-yl)thiophen-3-yl]pyridine] | melting point: 186 to 187 °C
– | – | – | – | – | 27 | Cn1ccc(-c2csc(-c3cccnc3)c2)cc1=O [Compound 26] | percentage of inhibition Dyrk1A (Dyrk1A): No inhibition; percentage of inhibition Dyrk1B (Dyrk1B): No inhibition
2.6 | 3 | – | – | – | 44 | N#Cc1cncc(-c2csc(-c3cccnc3)c2)c1 [Compound 13] | inhibition at 5 µM (Dyrk1B): 30%
1.3 | 0 | 1.4 | 0.3 µM | – | – | Nc1cc(-c2csc(-c3cccnc3)c2)cnc1Cl [Compound 23] | –
– | – | – | – | 0 | 12 | Clc1cncc(-c2csc(-c3cnco3)c2)c1 [Compound 34] | inhibition at 5 µM (Dyrk1B): 18%
4.4 | 0 | 8 | – | – | – | Cc1ccncc1-c1csc(-c2cccnc2)c1 [Compound 6] | inhibition at 1 µM (Dyrk2): 10%
– | – | – | – | 23 | 37.5 | Cc1cc(-c2csc(-c3cccnc3)c2)ccn1 [Compound 12] | percentage of inhibition Dyrk1B (Dyrk1B): No inhibition
0.7 | 16 | 0.3 | 0.2 µM | – | – | COc1cncc(-c2csc(-c3cccnc3)c2)c1 [Compound 8, 3-methoxy-5-[5-(pyridin-3-yl)thiophen-3-yl]pyridine] | melting point: 132 to 133 °C
– | – | – | 6.7 µM | 31 | – | c1cncc(-c2cc(-c3cscn3)cs2)c1 [Compound 28] | –
– | – | – | – | 7 | 5 | CSc1ncc(-c2csc(-c3cnco3)c2)cn1 [Compound 37] | inhibition at 5 µM (Dyrk1B): 21%
1.2 | 14 | 1.7 | 1.5 µM | – | – | COC(=O)c1cncc(-c2csc(-c3cccnc3)c2)c1 [Compound 18] | –
3.5 | 6 | 3.2 | 2.9 µM | – | – | c1cncc(-c2cc(-c3cncc4ccccc34)cs2)c1 [Compound 21] | –
– | 0 | 34 | – | – | – | COc1ccc(-c2csc(-c3cccnc3)c2)cn1 [Compound 9] | percentage of inhibition Dyrk2 (Dyrk2; at 5 µM): No inhibition
3.1 | 0 | 5.4 | 3 µM | – | – | FC(F)(F)c1cncc(-c2csc(-c3cccnc3)c2)c1 [Compound 14] | –
– | – | – | – | 2 | 27 | c1ncc(-c2csc(-c3cncnc3)c2)cn1 [Compound 44] | inhibition at 5 µM (Dyrk1B): 27%
1.2 | 14 | 1.9 | 0.7 µM | – | – | Clc1cncc(-c2csc(-c3cccnc3)c2)c1 [Compound 16] | –
0.9 | 4.2 | 1.5 | 0.3 µM | – | – | NC(=O)c1cncc(-c2csc(-c3cccnc3)c2)c1 [Compound 19, 5-[5-(pyridin-3-yl)thiophen-3-yl]pyridine-3-carboxamide] | melting point: 217 to 218 °C
